Measurements published in ChEMBL document CHEMBL1201861, “Genomics of Drug Sensitity in Cancer screening data, Wellcome Trust Sanger Institute”.
pIC50: −log10 of the molar value.

Legend:
Caov-3 cell line = assay: cells; type: functional, cell-based; settings: Homo sapiens;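 note: cell growth inhibition read out by a viability assay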
Description: SANGER: Inhibition of human Caov-3 cell growth in a cell viability assay.

EW-7 = assay: SANGER: Inhibition of human EW-7 cell growth in a cell viability assay.; type: functional, cell-based; settings: Homo sapiens, EW-7
IPC-298 = assay: SANGER: Inhibition of human IPC-298 cell growth in a cell viability assay.; type: functional, cell-based
NCI-H322M = assay: cells; type: functional, cell-based; settings: Homo sapiens;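 note: cell viability assay measuring inhibition of growth of human NCI-H322M cells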
Description: SANGER: Inhibition of human NCI-H322M cell growth in a cell viability assay.

BL-70 = assay: SANGER: Inhibition of human BL-70 cell growth in a cell viability assay.; type: functional, cell-based
SK-CO-1 = assay: cells; type: functional, cell-based; settings: Homo sapiens;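 note: growth inhibition of SK-CO-1 cells, determined by a viability readout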
Description: SANGER: Inhibition of human SK-CO-1 cell growth in a cell viability assay.

CESS = assay: SANGER: Inhibition of human CESS cell growth in a cell viability assay.; type: functional, cell-based
U-698-M = assay: cells; type: functional, cell-based; settings: Homo sapiens
Description: SANGER: Inhibition of human U-698-M cell growth in a cell viability assay.

SR = assay: cells; type: functional, cell-based; settings: Homo sapiens
Description: SANGER: Inhibition of human SR cell growth in a cell viability assay.

CCF-STTG1 = assay: cells; type: functional, cell-based; settings: Homo sapiens;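 note: growth inhibition of human CCF-STTG1 cells, determined with a cell viability read-out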
Description: SANGER: Inhibition of human CCF-STTG1 cell growth in a cell viability assay.

ECC12 = assay: cells; type: functional, cell-based; settings: Homo sapiens
Description: SANGER: Inhibition of human ECC12 cell growth in a cell viability assay.

BC1 cell line = assay: SANGER: Inhibition of human BC-1 cell growth in a cell viability assay.; type: functional, cell-based
MRK-nu-1 = assay: cells; type: functional, cell-based; settings: Homo sapiens;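 note: cell viability assay measuring growth suppression of human MRK-nu-1 cells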
Description: SANGER: Inhibition of human MRK-nu-1 cell growth in a cell viability assay.

MFE-296 = assay: SANGER: Inhibition of human MFE-296 cell growth in a cell viability assay.; type: functional, cell-based
COLO 205 = assay: cells; type: functional, cell-based; settings: Homo sapiens
Description: SANGER: Inhibition of human COLO-205 cell growth in a cell viability assay.

NCI-H630 = assay: cells; type: functional, cell-based, Homo sapiens; settings: Homo sapiens, NCI-H630;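 note: growth inhibition of NCI-H630 cells, read out with a cell viability assay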
Description: SANGER: Inhibition of human NCI-H630 cell growth in a cell viability assay.

Daudi = assay: cells; type: functional, cell-based; settings: Homo sapiens;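 note: growth inhibition of Daudi cells, read out by a viability assay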
Description: SANGER: Inhibition of human Daudi cell growth in a cell viability assay.

MDA-MB-468 = assay: cells; type: functional, cell-based; settings: Homo sapiens
Description: SANGER: Inhibition of human MDA-MB-468 cell growth in a cell viability assay.

JIYOYE = assay: cells; type: functional, cell-based; settings: Homo sapiens
Description: SANGER: Inhibition of human JiyoyeP-2003 cell growth in a cell viability assay.

C-4-II = assay: SANGER: Inhibition of human C-4-II cell growth in a cell viability assay.; type: functional, cell-based
SNU-C1 = assay: cells; type: functional, cell-based; settings: Homo sapiens;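 note: growth inhibition of SNU-C1 human cells, read out by a cell viability assay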
Description: SANGER: Inhibition of human SNU-C1 cell growth in a cell viability assay.

L-540 = assay: cells; type: functional, cell-based; settings: Homo sapiens;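 note: growth inhibition of the human L-540 cell line, read out with a viability assay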
Description: SANGER: Inhibition of human L-540 cell growth in a cell viability assay.

DV-90 = assay: cells; type: functional, cell-based; settings: Homo sapiens;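 note: Read-out is a viability assay, with IC50 reflecting the drop in DV-90 cell growth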
Description: SANGER: Inhibition of human DV-90 cell growth in a cell viability assay.

NCI-H1618 = assay: cells; type: functional, cell-based; settings: Homo sapiens;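 note: growth inhibition of human NCI-H1618 cells, measured by a cell viability assay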
Description: SANGER: Inhibition of human NCI-H1618 cell growth in a cell viability assay.

HSC-4 = assay: cells; type: functional, cell-based, Homo sapiens; settings: Homo sapiens, HSC-4;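 note: growth inhibition of human HSC-4 cells, read out with a cell viability assay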
Description: SANGER: Inhibition of human HSC-4 cell growth in a cell viability assay.

CPC-N = assay: cells; type: functional, cell-based; settings: Homo sapiens;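 note: growth inhibition of CPC-N cells, with a cell viability assay as the readout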
Description: SANGER: Inhibition of human CPC-N cell growth in a cell viability assay.

NCI-H1734 = assay: cells; type: functional, cell-based; settings: Homo sapiens;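 note: growth inhibition of human NCI-H1734 cells, read out with a cell viability assay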
Description: SANGER: Inhibition of human NCI-H1734 cell growth in a cell viability assay.

SNU-475 = assay: cells; type: functional, cell-based; settings: Homo sapiens
Description: SANGER: Inhibition of human SNU-475 cell growth in a cell viability assay.

NALM-6 = assay: cells; type: functional, cell-based; settings: Homo sapiens;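 note: growth inhibition of NALM-6 cells, read out with a cell viability assay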
Description: SANGER: Inhibition of human NALM-6 cell growth in a cell viability assay.

OPM-2 = assay: cells; type: functional, cell-based; settings: Homo sapiens;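 note: growth of OPM-2 cells measured with a viability assay, IC50 for suppression of proliferation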
Description: SANGER: Inhibition of human OPM-2 cell growth in a cell viability assay.

TT = assay: cells; type: functional, cell-based; settings: Homo sapiens
Description: SANGER: Inhibition of human TT cell growth in a cell viability assay.

MES-SA = assay: cells; type: functional, cell-based, Homo sapiens; settings: Homo sapiens, MES-SA;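 note: growth inhibition of human MES-SA cells, read out with a cell viability assay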
Description: SANGER: Inhibition of human MES-SA cell growth in a cell viability assay.

TALL-1 = assay: cells; type: functional, cell-based; settings: Homo sapiens;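 note: growth inhibition of cultured human TALL-1 cells, read out by a cell viability assay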
Description: SANGER: Inhibition of human TALL-1 cell growth in a cell viability assay.

SNG-M = assay: cells; type: functional, cell-based; settings: Homo sapiens
Description: SANGER: Inhibition of human SNG-M cell growth in a cell viability assay.

EFE-184 = assay: cells; type: functional, cell-based; settings: Homo sapiens
Description: SANGER: Inhibition of human EFE-184 cell growth in a cell viability assay.

NCI-H838 = assay: cells; type: functional, cell-based; settings: Homo sapiens;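 note: growth inhibition of human NCI-H838 cells, read out by a cell viability assay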
Description: SANGER: Inhibition of human NCI-H838 cell growth in a cell viability assay.

TUR = assay: cells; type: functional, cell-based; settings: Homo sapiens;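 note: growth inhibition of human TUR cells, read out with a cell viability assay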
Description: SANGER: Inhibition of human TUR cell growth in a cell viability assay.

Calu-1 = assay: SANGER: Inhibition of human Calu-1 cell growth in a cell viability assay.; type: functional, cell-based
HCC1143 = assay: cells; type: functional, cell-based; settings: Homo sapiens;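 note: growth inhibition of human HCC1143 cells, read out with a cell viability assay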
Description: SANGER: Inhibition of human HCC1143 cell growth in a cell viability assay.

LC-1F = assay: cells; type: functional, cell-based; settings: Homo sapiens;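 note: growth inhibition of human LC-1F cells, read out with a cell viability assay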
Description: SANGER: Inhibition of human LC-1F cell growth in a cell viability assay.

MC-CAR = assay: cells; type: functional, cell-based; settings: Homo sapiens;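 note: growth inhibition of the human MC-CAR cell line, read out by a cell viability assay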
Description: SANGER: Inhibition of human MC-CAR cell growth in a cell viability assay.

HCT-15 = assay: cells; type: functional, cell-based, Homo sapiens; settings: Homo sapiens, HCT-15;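 note: cell viability readout, IC50 reflecting suppression of HCT-15 cell growth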
Description: SANGER: Inhibition of human HCT-15 cell growth in a cell viability assay.

NCI-H2196 = assay: cells; type: functional, cell-based; settings: Homo sapiens;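 note: cell viability assay used as the readout of growth inhibition in NCI-H2196 cells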
Description: SANGER: Inhibition of human NCI-H2196 cell growth in a cell viability assay.

NCI-H524 = assay: cells; type: functional, cell-based; settings: Homo sapiens;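 note: growth inhibition of human NCI-H524 cells, read out through a cell viability assay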
Description: SANGER: Inhibition of human NCI-H524 cell growth in a cell viability assay.

SNU-423 = assay: cells; type: functional, cell-based, Homo sapiens; settings: Homo sapiens, SNU-423
Description: SANGER: Inhibition of human SNU-423 cell growth in a cell viability assay.

NCCIT = assay: SANGER: Inhibition of human NCCIT cell growth in a cell viability assay.; type: functional, cell-based
NCI-H719 = assay: cells; type: functional, cell-based; settings: Homo sapiens;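 note: growth inhibition of the cultured cell line, read out with a viability assay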
Description: SANGER: Inhibition of human NCI-H719 cell growth in a cell viability assay.

COR-L279 = assay: SANGER: Inhibition of human COR-L279 cell growth in a cell viability assay.; type: functional, cell-based
P31-FUJ = assay: cells; type: functional, cell-based; settings: Homo sapiens;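 note: growth inhibition of P31-FUJ cells, read out with a viability assay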
Description: SANGER: Inhibition of human P31-FUJ cell growth in a cell viability assay.

HuO9 = assay: cells; type: functional, cell-based, Homo sapiens; settings: Homo sapiens, HuO9;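 note: growth inhibition of HuO9 cells, read out with a cell viability assay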
Description: SANGER: Inhibition of human HuO9 cell growth in a cell viability assay.

PLC-PRF-5 = assay: cells; type: functional, cell-based; settings: Homo sapiens;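 note: growth inhibition of human PLC-PRF-5 cells, read out with a viability assay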
Description: SANGER: Inhibition of human PLC-PRF-5 cell growth in a cell viability assay.

NCI-H2227 = assay: cells; type: functional, cell-based; settings: Homo sapiens;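 note: growth inhibition of the human cell line, read out with a cell viability assay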
Description: SANGER: Inhibition of human NCI-H2227 cell growth in a cell viability assay.

In the case of Cc1cnc(-c2cnc(NCCNc3ccc(C#N)cn3)nc2-c2ccc(Cl)cc2Cl)[nH]1 [LADUVIGLUSIB], the pIC50 (Caov-3 cell line) was under 5.59, the pIC50 (EW-7) was under 5.59 and the pIC50 (IPC-298) was under 5.59. For the same molecule, the pIC50 (NCI-H322M) was under 5.59, the pIC50 (BL-70) was under 5.59 and the pIC50 (SK-CO-1) was under 5.59. For the same molecule, the pIC50 (CESS) was under 5.59, the pIC50 (U-698-M) was under 5.59 and the pIC50 (SR) was under 5.59. It also gave a pIC50 (CCF-STTG1) of under 5.59, a pIC50 (ECC12) of under 5.59 and a pIC50 (BC1 cell line) of under 5.59. For the same molecule, the pIC50 (MRK-nu-1) was under 5.59, the pIC50 (MFE-296) was under 5.59 and the pIC50 (COLO 205) was under 5.59. For the same molecule, the pIC50 (NCI-H630) was under 5.59, the pIC50 (Daudi) was under 5.59 and the pIC50 (MDA-MB-468) was under 5.59. For the same molecule, the pIC50 (JIYOYE) was under 5.59, the pIC50 (C-4-II) was under 5.59 and the pIC50 (SNU-C1) was under 5.59. For the same molecule, the pIC50 (L-540) was under 5.59, the pIC50 (DV-90) was under 5.59 and the pIC50 (NCI-H1618) was under 5.59. The pIC50 (HSC-4) was under 5.59, the pIC50 (CPC-N) was under 5.59 and the pIC50 (NCI-H1734) was under 5.59. The pIC50 (SNU-475) was under 5.59, the pIC50 (NALM-6) was under 5.59 and the pIC50 (OPM-2) was under 5.59. It also gave a pIC50 (TT) of under 5.59, a pIC50 (MES-SA) of under 5.59 and a pIC50 (TALL-1) of under 5.59. It also gave a pIC50 (SNG-M) of under 5.59, a pIC50 (EFE-184) of under 5.59 and a pIC50 (NCI-H838) of under 5.59. It also gave a pIC50 (TUR) of under 5.59, a pIC50 (Calu-1) of under 5.59 and a pIC50 (HCC1143) of under 5.59. It also gave a pIC50 (LC-1F) of under 5.59, a pIC50 (MC-CAR) of under 5.59 and a pIC50 (HCT-15) of under 5.59. For the same molecule, the pIC50 (NCI-H2196) was under 5.59, the pIC50 (NCI-H524) was under 5.59 and the pIC50 (SNU-423) was 5.60. The pIC50 (NCCIT) was under 5.59, the pIC50 (NCI-H719) was under 5.59 and the pIC50 (COR-L279) was under 5.59. For the same molecule, the pIC50 (P31-FUJ) was under 5.59, the pIC50 (HuO9) was under 5.59 and the pIC50 (PLC-PRF-5) was under 5.59. The pIC50 (NCI-H2227) was under 5.59.
With CN(c1ncccc1CNc1nc(Nc2ccc3c(c2)CC(=O)N3)ncc1C(F)(F)F)S(C)(=O)=O [PF-00562271] the pIC50 (Caov-3 cell line) was under 5.59, the pIC50 (EW-7) was under 5.59 and the pIC50 (IPC-298) was under 5.59. For the same molecule, the pIC50 (NCI-H322M) was under 5.59, the pIC50 (BL-70) was under 5.59 and the pIC50 (SK-CO-1) was under 5.59. For the same molecule, the pIC50 (CESS) was under 5.59, the pIC50 (U-698-M) was under 5.59 and the pIC50 (SR) was under 5.59. The pIC50 (CCF-STTG1) was under 5.59, the pIC50 (ECC12) was under 5.59 and the pIC50 (BC1 cell line) was 5.79. The pIC50 (MRK-nu-1) was under 5.59, the pIC50 (MFE-296) was 5.61 and the pIC50 (COLO 205) was 6.31. The pIC50 (NCI-H630) was under 5.59, the pIC50 (Daudi) was under 5.59 and the pIC50 (MDA-MB-468) was 5.72. The pIC50 (JIYOYE) was under 5.59, the pIC50 (C-4-II) was under 5.59 and the pIC50 (SNU-C1) was under 5.59. The pIC50 (L-540) was under 5.59, the pIC50 (DV-90) was under 5.59 and the pIC50 (NCI-H1618) was under 5.59. It also gave a pIC50 (HSC-4) of under 5.59, a pIC50 (CPC-N) of under 5.59 and a pIC50 (NCI-H1734) of under 5.59. For the same molecule, the pIC50 (SNU-475) was under 5.59, the pIC50 (NALM-6) was under 5.59 and the pIC50 (OPM-2) was under 5.59. It also gave a pIC50 (TT) of under 5.59, a pIC50 (MES-SA) of 5.88 and a pIC50 (TALL-1) of under 5.59. It also gave a pIC50 (SNG-M) of under 5.59, a pIC50 (EFE-184) of under 5.59 and a pIC50 (NCI-H838) of under 5.59. For the same molecule, the pIC50 (TUR) was under 5.59, the pIC50 (Calu-1) was under 5.59 and the pIC50 (HCC1143) was under 5.59. It also gave a pIC50 (LC-1F) of under 5.59, a pIC50 (MC-CAR) of under 5.59 and a pIC50 (HCT-15) of under 5.59. The pIC50 (NCI-H2196) was under 5.59, the pIC50 (NCI-H524) was under 5.59 and the pIC50 (SNU-423) was under 5.59. For the same molecule, the pIC50 (NCCIT) was under 5.59, the pIC50 (NCI-H719) was under 5.59 and the pIC50 (COR-L279) was under 5.59. For the same molecule, the pIC50 (P31-FUJ) was under 5.59, the pIC50 (HuO9) was under 5.59 and the pIC50 (PLC-PRF-5) was under 5.59. The pIC50 (NCI-H2227) was under 5.59.
For Cn1cncc1[C@@](N)(c1ccc(Cl)cc1)c1ccc2c(c1)c(-c1cccc(Cl)c1)cc(=O)n2C [TIPIFARNIB], the pIC50 (Caov-3 cell line) was under 4.80, the pIC50 (EW-7) was under 4.80 and the pIC50 (IPC-298) was 5.23. It also gave a pIC50 (NCI-H322M) of under 4.80, a pIC50 (BL-70) of 5.71 and a pIC50 (SK-CO-1) of 4.89. It also gave a pIC50 (CESS) of 5.69, a pIC50 (U-698-M) of 5.40 and a pIC50 (SR) of 5.75. The pIC50 (CCF-STTG1) was under 4.80, the pIC50 (BC1 cell line) was 6.89 and the pIC50 (MRK-nu-1) was 5.95. The pIC50 (MFE-296) was 5.84, the pIC50 (COLO 205) was 5.38 and the pIC50 (Daudi) was 5.60. The pIC50 (MDA-MB-468) was under 4.80, the pIC50 (JIYOYE) was 5.04 and the pIC50 (C-4-II) was 5.21. It also gave a pIC50 (SNU-C1) of under 4.80, a pIC50 (L-540) of 5.32 and a pIC50 (DV-90) of under 4.80. It also gave a pIC50 (NCI-H1618) of under 4.80, a pIC50 (HSC-4) of under 4.80 and a pIC50 (CPC-N) of 4.83. It also gave a pIC50 (NCI-H1734) of 4.84, a pIC50 (SNU-475) of under 4.80 and a pIC50 (NALM-6) of 7.44. It also gave a pIC50 (OPM-2) of under 4.80, a pIC50 (TT) of under 4.80 and a pIC50 (MES-SA) of 5.34. The pIC50 (TALL-1) was under 4.80, the pIC50 (SNG-M) was 6.69 and the pIC50 (EFE-184) was 5.34. For the same molecule, the pIC50 (NCI-H838) was under 4.80, the pIC50 (TUR) was 6.06 and the pIC50 (Calu-1) was 6.74. It also gave a pIC50 (HCC1143) of 4.87, a pIC50 (LC-1F) of under 4.80 and a pIC50 (MC-CAR) of 5.04. The pIC50 (HCT-15) was 6.49, the pIC50 (NCI-H2196) was under 4.80 and the pIC50 (NCI-H524) was under 4.80. For the same molecule, the pIC50 (SNU-423) was 6.15, the pIC50 (NCCIT) was 5.89 and the pIC50 (NCI-H719) was 4.98. The pIC50 (COR-L279) was 5.10, the pIC50 (P31-FUJ) was under 4.80 and the pIC50 (PLC-PRF-5) was under 4.80. The pIC50 (NCI-H2227) was under 4.80.
